One data set deals with complement activation. The conditions noted are these: relative to compstatin amidated at the C-terminus; based on published data (WO2004/026328, WO2007044668, Mallik 2005, Katragadda 2006); cited from earlier work.
For a further data set, the system named is factor B mRNA transcript. Kind of data set: Knockdown of factor B expression in HepG2 cells using siRNAs, dose response experiments (DRC). In kind it is cell-based, human. The conditions noted are these: for Max Factor B inhibition (%): dose response up to 100 nM. How it is done:
HepG2 cells were obtained from ATCC (ATCC in partnership with LGC Standards, Wesel, Germany, cat. #ATCC-HB-8065) and cultured in MEM Eagle (#M2279, Sigma-Aldrich, Germany), supplemented to contain 10% fetal calf serum (#1248D, Biochrom GmbH, Berlin, Germany), 1×non-essential amino acids (#K0293; Biochrom, Berlin, Germany), 4 mM L-Glutamine (#K0283, Biochrom, Berlin, Germany) and 100 U/ml Penicillin/100 μg/ml Streptomycin (#A2213, Biochrom GmbH, Berlin, Germany) at 37° C. in an atmosphere with 5% CO2 in a humidified incubator.
24 siRNAs were designed and synthesized to target different regions of the factor B mRNA transcript. In this experiment, the sense strand of each siRNA contained 18 nucleotides identical to a target region sequence on the factor B transcript (SEQ ID NO: 75), and one additional adenine nucleotide at the 3′ end. Additionally, in this experiment, the antisense strand contained 18 nucleotides complementary to a target region sequence on the factor B transcript (SEQ ID NO: 75), and one additional uracil nucleotide at the 5′ end, and 2 additional uracil nucleotides at the 3′ end.
Transfection of siRNA was carried out with Lipofectamine RNAiMax (Invitrogen/Life Technologies, Karlsruhe, Germany) according to manufacturer's instructions for reverse transfection.
Each siRNA was tested using dose response experiments (DRC) in HepG2 cells. Dose-response experiments were done with siRNA in 10 concentrations transfected in quadruplicates, starting at 100 nM in 6-fold dilutions steps down to ˜10 fM. Mock transfected cells served as negative controls.
For each well, the target mRNA level was normalized to the respective GAPDH mRNA level. The activity of a given siRNA was expressed as percent mRNA concentration of the respective target (normalized to GAPDH mRNA) in treated cells, relative to the target mRNA concentration (normalized to GAPDH mRNA) averaged across mock transfected wells (DRCs).
Dose response experiments described above were repeated in a subset of siRNAs shown in Table 9, specifically siRNAs 2, 7, 8, and 3.

Where [1] appears, read: additional (repeated) dose response experiments, Table 10.
Setting [2] is: reverse transfection, 10 concentrations from 100 nM in 6-fold dilutions, factor B mRNA normalized to GAPDH, relative to mock, Table 8.

Oligonucleotides are written 5' to 3', each unit as a sugar letter and its base; * is a phosphorothioate linkage, no mark a phosphodiester; rarer units and linkages stand in square brackets, end groups in braces. Plain capitals give the bases only. Bridges are numbered along the chain shown (N, C = ends). [ ]: non-standard residue; d: D form. Bpa = N[C@@H](Cc1ccc(C(=O)c2ccccc2)cc1)C(=O)O; 1Nal = N[C@@H](Cc1cccc2ccccc12)C(=O)O; 2Nal = N[C@@H](Cc1ccc2ccccc2c1)C(=O)O; Igl = N[C@H](C(=O)O)C1Cc2ccccc2C1; m = 2'-O-methyl; f = 2'-fluoro

Take “Ac-ICV(2-Nal)CQDWGAHRCT-ONH2 (Ac-ICV[2Nal]QDWGAHRCT-NH2; ends and bridges not checked) [Ac-V4(2-Nal)/H9A]”: the Activity over compstatin in the data set with complement activation is listed as 99xmore.

Take “H-GICV(6fW)QD(6fW)GAHRCTN-COOH (GICVXQDXGAHRCTN; not fully specified; 6-fluoro-Trp residues; C-terminal acid; SITE 1 N-term H - hydrogenated Glycine; SITE 5 6-fluoro-tryptophan; SITE 8 6-fluoro-tryptophan; SITE 15 C-term COOH - Asparagine carboxide) [+G/V4(6fW)/W7(6fW)H9A + N-OH]”: the Activity over compstatin in the data set on complement activation was 126xmore. With “Ac-ICV(2-Igl)QDWGAHRCT-CONH2 (Ac-ICV[Igl]QDWGAHRCT-NH2; not fully specified (bridges); printed as Ac-ICV(2-Igl)QDWGAHRCT-CONH2; cysteine pairing not given here) [Ac-V42Igl/H9A]”, in the data set on complement activation, the Activity over compstatin is given as 39xmore. For “Ac-ICVWQDWGAHRCT-CONH2 (Ac-ICVWQDWGAHRCT-NH2; disulfide 2-12 (inferred)) [Ac-V4W/H9A]”, in the data set with complement activation, the Activity over compstatin is 45xmore. With “Ac-ICV(2-Igl)QDWGAHRCT-COOH (Ac-ICV[Igl]QDWGAHRCT-OH; not fully specified (bridges); printed as Ac-ICV(2-Igl)QDWGAHRCT-COOH; cysteine pairing not given here) [Ac-V42Igl/H9A-OH]”, the Activity over compstatin with complement activation was 37xmore. As to “Ac-ICVWQDWGAHRCdT-COOH [Ac-V4W/H9A/T13dT-OH]”, the Activity over compstatin in the data set on complement activation was 55xmore. Regarding “Ac-ICV(Bpa)QDWGAHRCT-CONH2 (Ac-ICV[Bpa]QDWGAHRCT-NH2; not fully specified (bridges); printed as Ac-ICV(Bpa)QDWGAHRCT-CONH2; cysteine pairing not given here) [Ac-V4(Bpa)/H9A]”, the Activity over compstatin in the data set on complement activation is recorded as 86xmore. For the substance Ac-ICVYQDWGAHRCT-CONH2 [Ac-V4Y/H9A], the Activity over compstatin in the data set on complement activation was 14xmore. On to “Ac-ICV(1-Nal)QDWGAHRCT-COOH (Ac-ICV[1Nal]QDWGAHRCT-OH; not fully specified (bridges); printed as Ac-ICV(1-Nal)QDWGAHRCT-COOH; cysteine pairing not given here) [Ac V4(1-Nal)/H9A-OH]”, for which, in the data set with complement activation, the Activity over compstatin is 30xmore. Turning to “Ac-ICV(Bpa)QDWGAHRCT-COOH (Ac-ICV[Bpa]QDWGAHRCT-OH; not fully specified (bridges); printed as Ac-ICV(Bpa)QDWGAHRCT-COOH; cysteine pairing not given here) [Ac-V4(Bpa)/H9A-OH]”, the Activity over compstatin with complement activation was 49xmore.

Regarding “Ac-ICV(2-Nal)QDWGAHRCT-COOH (Ac-ICV[2Nal]QDWGAHRCT-OH; not fully specified (bridges); printed as Ac-ICV(2-Nal)QDWGAHRCT-COOH; cysteine pairing not given here) [Ac V4(2-Nal)/H9A-OH]”, in the data set on complement activation, the Activity over compstatin is 38xmore.

As to “2 (sense mC*mU*fUmCmUmGfGfCfUmUmCfUmAmCmCmCfGmUmA; antisense mU*fA*mCmGmGmGmUmAmGmAmAmGmCfCmAmGmAmAmG*mU*mU; siRNA) [compound 2]”, in the data set on factor B mRNA transcript (setting [1]), it took 0.021 nM to reach the 20% level (IC20), the IC50 turned out to be 0.0887 nM, the IC80 was 0.865 nM and the “Max KD [%]” value is recorded as 83.5%. In the data set with factor B mRNA transcript (Table 8), the “Max Factor B inhibition (%)” value worked out at 90.18%. This substance had an IC80 in the data set on factor B mRNA transcript (setting [2]) of 7.07 nM. As to “19 (sense mC*mU*fAmCmCmAfCfUfUmGmCfCmAmGmCmAfAmCmA; antisense mU*fG*mUmUmGmCmUmGmGmCmAmAmGfUmGmGmUmAmG*mU*mU; siRNA) [compound 19]”, in the data set with factor B mRNA transcript (Table 8), the “Max Factor B inhibition (%)” value was determined as 74.03%. Besides, in the data set with factor B mRNA transcript (setting [2]), the IC20 came to 0.16 nM and the IC50 came to 1.12 nM. Turning to Ac-ICVVQDWGHHRCT-CONH2 [Ac-compstatin], the Activity over compstatin in the data set with complement activation was 3xmore. For “1 (sense mC*mC*fUmAmCmUfAfCfAmAmUfGmUmGmAmGfUmGmA; antisense mU*fC*mAmCmUmCmAmCmAmUmUmGmUfAmGmUmAmGmG*mU*mU; siRNA) [compound 1]”, in the data set with factor B mRNA transcript (Table 8), the “Max Factor B inhibition (%)” value stood at 91.04%. In addition, in the data set on factor B mRNA transcript (setting [2]), the IC20 stood at 0.03 nM, the IC50 is 0.54 nM and the IC80 was 19.8 nM. Turning to “23 (sense mU*mU*fUmUmAmUfGfAfCmUmAfUmGmAmCmGfUmUmA; antisense mU*fA*mAmCmGmUmCmAmUmAmGmUmCfAmUmAmAmAmA*mU*mU; siRNA) [compound 23]”, the “Max Factor B inhibition (%)” value with factor B mRNA transcript (Table 8) turned out to be 68.74%. In the data set on factor B mRNA transcript (setting [2]), it took 0.22 nM to reach the 20% level (IC20) and the IC50 stood at 2.44 nM.

As usually defined, the IC20 is the concentration at which the effect reaches the 20% level. What is called IC50 is the concentration that gives 50% inhibition. For orientation: IC80 means the point of the concentration-response curve where the effect stands at 80%. Read a high IC80 as weaker potency.

The record behind these values is patent US20250075209A1, “RNAS FOR COMPLEMENT INHIBITION” (Apellis Pharmaceuticals, Inc., priority 2021, published 2025).
